Results on 45 substances are retold here after patent US11292821B2, “Peptides and combination of peptides for use in immunotherapy against lung cancer, including NSCLC, SCLC and other cancers” (Immatics Biotechnologies GmbH, priority 2017, dated 2022).

The test system of one assay is CD8+ T cells. Kind of assay: In vitro T-cell priming assay with aAPCs (in vitro immunogenicity for MHC class I presented peptides). The class given is cell-based, human. Conditions: in vitro immunogenicity, HLA B*07.
For the next assay, the target named is HLA-B*07 (Homo sapiens, UniProt P01889). Kind of assay: MHC binding assay (UV-ligand exchange, β2m ELISA). An excerpt:
Candidate peptides for T cell based therapies according to the present invention were further tested for their MHC binding capacity (affinity). The individual peptide-MHC complexes were produced by UV-ligand exchange, where a UV-sensitive peptide is cleaved upon UV-irradiation, and exchanged with the peptide of interest as analyzed. Only peptide candidates that can effectively bind and stabilize the peptide-receptive MHC molecules prevent dissociation of the MHC complexes. To determine the yield of the exchange reaction, an ELISA was performed based on the detection of the light chain (β2m) of stabilized MHC complexes. The assay was performed as generally described in Rodenko et al. (Rodenko et al., 2006).
96 well MAXISorp plates (NUNC) were coated over night with 2 ug/ml streptavidin in PBS at room temperature, washed 4× and blocked for 1 h at 37° C. in 2% BSA containing blocking buffer. […] Peptide-MHC monomers of the UV-exchange reaction were diluted 100-fold in blocking buffer. Samples were incubated for 1 h at 37° C., washed four times, incubated with 2 ug/ml HRP conjugated anti-β2m for 1h at 37° C., washed again and detected with TMB solution that is stopped with […]. Absorption was measured at 450 nm. Candidate peptides that show a high exchange yield (preferably higher than 50%, most preferred higher than 75%) are generally preferred for a generation and production of antibodies or fragments thereof, and/or T cell receptors or fragments thereof, as they show sufficient avidity to the MHC molecules and prevent dissociation of the MHC complexes.

The next assay deals with HLA-B*44. The assay can be described thus: MHC binding assay (UV-ligand exchange, β2m ELISA). Details: species or system human. Conditions: UV-ligand exchange, β2m ELISA. On the technique in general: ELISA stands for enzyme-linked immunosorbent assay.

Regarding “221 (VPDVAQFVL; listed as Homo sapiens) [compound 221]”, the “Wells positive [%]” value with CD8+ T cells is on record as ““++” (20%-49% = ++)”. In the assay with HLA-B*07, the “Peptide exchange (peptide exchange yield, MHC class I binding score)” value (“Peptide exchange” for short) is listed as ““++++” (>75% = ++++)”.

With “343 (TEFTTVLY; listed as Homo sapiens) [compound 343]”, the “Peptide exchange” value with HLA-B*44 is ““++” (>20% = ++)”.

“482 (TEREWADEW; listed as Homo sapiens) [compound 482]”: in the assay with HLA-B*44, the “Peptide exchange” value was ““+++” (>50 =+++)”.

Take “345 (IEFIHPQAF; listed as Homo sapiens) [compound 345]”: in the assay with HLA-B*44, the “Peptide exchange” value is ““++++” (>75% = ++++)”.

Turning to “231 (RPRALRDLQL; listed as Homo sapiens) [compound 231]”, the “Wells positive [%]” value with CD8+ T cells is recorded as ““++” (20%-49% = ++)”. The “Peptide exchange” value in the assay with HLA-B*07 is reported as ““++++” (>75% = ++++)”.

Turning to “473 (LPRALLSSL; listed as Homo sapiens) [compound 473]”, the “Wells positive [%]” value in the assay with CD8+ T cells is listed as ““++” (20%-49% = ++)”. In the assay with HLA-B*07, the “Peptide exchange” value is given as ““++++” (>75% = ++++)”.

“373 (MEMQKSPVF; listed as Homo sapiens) [compound 373]”: in the assay with HLA-B*44, the “Peptide exchange” value is ““+++” (>50 =+++)”.

In the case of “228 (YPRGNHWAVGHL; listed as Homo sapiens) [compound 228]”, the “Wells positive [%]” value with CD8+ T cells was ““++” (20%-49% = ++)”. Further, in the assay with HLA-B*07, the “Peptide exchange” value was ““++++” (>75% = ++++)”.

On to “487 (AEDQLHHSF; listed as Homo sapiens) [compound 487]”, for which the “Peptide exchange” value in the assay with HLA-B*44 is ““+++” (>50 =+++)”.

“368 (GEFPVRVQV; listed as Homo sapiens) [compound 368]”: the “Peptide exchange” value with HLA-B*44 is ““++” (>20% = ++)”.

For the substance “363 (AELDKLTSV; listed as Homo sapiens) [compound 363]”, the “Peptide exchange” value in the assay on HLA-B*44 is listed as ““+++” (>50 =+++)”.

In the case of “293 (RPRSALPRLLLP; listed as Homo sapiens) [compound 293]”, in the assay on CD8+ T cells, the “Wells positive [%]” value is recorded as ““++” (20%-49% = ++)”. For the same substance, the “Peptide exchange” value with HLA-B*07 is recorded as ““++++” (>75% = ++++)”.

On to “366 (AENLFRAF; listed as Homo sapiens) [compound 366]”, for which the “Peptide exchange” value in the assay with HLA-B*44 is listed as ““++” (>20% = ++)”.

For the substance “348 (AEIQGNINHV; listed as Homo sapiens) [compound 348]”, in the assay with HLA-B*44, the “Peptide exchange” value is listed as ““+++” (>50 =+++)”.

Take “479 (AEIQPQTQV; listed as Homo sapiens) [compound 479]”: the “Peptide exchange” value in the assay with HLA-B*44 was ““+++” (>50 =+++)”.

For “374 (DEVNFLVY; listed as Homo sapiens) [compound 374]”, the “Peptide exchange” value with HLA-B*44 is reported as ““+” (>10% = +)”.

Take “232 (RPRALRDLQLL; listed as Homo sapiens) [compound 232]”: the “Wells positive [%]” value with CD8+ T cells is ““+++” (50%-69% = +++)”. Besides, in the assay with HLA-B*07, the “Peptide exchange” value was ““++++” (>75% = ++++)”.

On to “252 (SPDIRNTTV; listed as Homo sapiens) [compound 252]”, for which the “Wells positive [%]” value with CD8+ T cells is listed as ““+” (<20% = +)”. Moreover, the “Peptide exchange” value with HLA-B*07 is ““++++” (>75% = ++++)”.

Regarding “244 (FPYVRDFVM; listed as Homo sapiens) [compound 244]”, the “Wells positive [%]” value with CD8+ T cells was ““+” (<20% = +)”. Also, the “Peptide exchange” value with HLA-B*07 was ““++++” (>75% = ++++)”.

As to “324 (TDSIHAWTF; listed as Homo sapiens) [compound 324]”, in the assay on HLA-B*44, the “Peptide exchange” value is recorded as ““+++” (>50 =+++)”.

As to “357 (RELENCFQIQ; listed as Homo sapiens) [compound 357]”, the “Peptide exchange” value in the assay with HLA-B*44 is reported as ““+++” (>50 =+++)”.

For “463 (TPKAGPTL; listed as Homo sapiens) [compound 463]”, in the assay on CD8+ T cells, the “Wells positive [%]” value is recorded as ““+” (<20% = +)”. Further, in the assay with HLA-B*07, the “Peptide exchange” value is recorded as ““++++” (>75% = ++++)”.

“292 (SPQRLRGLLL; listed as Homo sapiens) [compound 292]”: the “Wells positive [%]” value in the assay on CD8+ T cells is on record as ““+++” (50%-69% = +++)”. In addition, in the assay with HLA-B*07, the “Peptide exchange” value is ““+++” (>50 = +++)”.

For the substance “462 (RPFHTRATV; listed as Homo sapiens) [compound 462]”, the “Wells positive [%]” value in the assay with CD8+ T cells is reported as ““++” (20%-49% = ++)”. The “Peptide exchange” value with HLA-B*07 is listed as ““++++” (>75% = ++++)”.

For “460 (MPMAGDMNGL; listed as Homo sapiens) [compound 460]”, the “Wells positive [%]” value in the assay with CD8+ T cells is on record as ““++” (20%-49% = ++)”. Moreover, the “Peptide exchange” value in the assay with HLA-B*07 was ““++++” (>75% = ++++)”.

Take “250 (SPRDFLSGL; listed as Homo sapiens) [compound 250]”: the “Wells positive [%]” value with CD8+ T cells is ““+” (<20% = +)”. The “Peptide exchange” value in the assay with HLA-B*07 is ““++++” (>75% = ++++)”.

Regarding “220 (SPSVSQLSVL; listed as Homo sapiens) [compound 220]”, the “Wells positive [%]” value in the assay with CD8+ T cells is given as ““++++” (>=70% = ++++)”. The “Peptide exchange” value with HLA-B*07 is reported as ““++++” (>75% = ++++)”.

Turning to “233 (KPYQGNPTF; listed as Homo sapiens) [compound 233]”, the “Wells positive [%]” value in the assay on CD8+ T cells is listed as ““+” (<20% = +)”. Moreover, the “Peptide exchange” value with HLA-B*07 is reported as ““++++” (>75% = ++++)”.

Consider “222 (NPFYPEVEL; listed as Homo sapiens) [compound 222]”, for which the “Wells positive [%]” value in the assay with CD8+ T cells is listed as ““+” (<20% = +)”. Moreover, in the assay with HLA-B*07, the “Peptide exchange” value is given as ““+++” (>50 = +++)”.

Turning to “223 (YPKDIYSSF; listed as Homo sapiens) [compound 223]”, the “Wells positive [%]” value in the assay with CD8+ T cells is listed as ““++” (20%-49% = ++)”. For the same substance, the “Peptide exchange” value with HLA-B*07 is recorded as ““++++” (>75% = ++++)”.

In the case of “248 (IPNWARQDL; listed as Homo sapiens) [compound 248]”, the “Wells positive [%]” value with CD8+ T cells is reported as ““++++” (>=70% = ++++)”. Moreover, the “Peptide exchange” value with HLA-B*07 is ““++++” (>75% = ++++)”.

On to “294 (GPTPNTGAAL; listed as Homo sapiens) [compound 294]”, for which, in the assay with CD8+ T cells, the “Wells positive [%]” value is ““+++” (50%-69% = +++)”. Also, in the assay with HLA-B*07, the “Peptide exchange” value was ““++++” (>75% = ++++)”.

For the substance “237 (RPAATAVISL; listed as Homo sapiens) [compound 237]”, the “Wells positive [%]” value in the assay with CD8+ T cells is recorded as ““+” (<20% = +)”. In the assay with HLA-B*07, the “Peptide exchange” value is given as ““+++” (>50 = +++)”.

For the substance “474 (LPRLLPAL; listed as Homo sapiens) [compound 474]”, the “Wells positive [%]” value in the assay with CD8+ T cells is recorded as ““+++” (50%-69% = +++)”. The “Peptide exchange” value in the assay with HLA-B*07 is ““++++” (>75% = ++++)”.

Take “224 (GPQPWHAAL; listed as Homo sapiens) [compound 224]”: in the assay on CD8+ T cells, the “Wells positive [%]” value is given as ““++” (20%-49% = ++)”. The “Peptide exchange” value with HLA-B*07 was ““++++” (>75% = ++++)”.

For the substance “225 (LPFDGPGGIL; listed as Homo sapiens) [compound 225]”, the “Wells positive [%]” value with CD8+ T cells is on record as ““++++” (>=70% = ++++)”. In the assay with HLA-B*07, the “Peptide exchange” value was ““++++” (>75% = ++++)”.

In the case of “226 (SPRMSGLLSQT; listed as Homo sapiens) [compound 226]”, the “Wells positive [%]” value in the assay with CD8+ T cells is recorded as ““+++” (50%-69% = +++)”. Moreover, the “Peptide exchange” value in the assay with HLA-B*07 is given as ““++++” (>75% = ++++)”.

Take “241 (SARLATDAL; listed as Homo sapiens) [compound 241]”: the “Wells positive [%]” value with CD8+ T cells is given as ““+++” (50%-69% = +++)”. The “Peptide exchange” value in the assay with HLA-B*07 was ““++++” (>75% = ++++)”.

Regarding “274 (TPYQEHVAL; listed as Homo sapiens) [compound 274]”, the “Wells positive [%]” value in the assay on CD8+ T cells is listed as ““+” (<20% = +)”. For the same substance, in the assay with HLA-B*07, the “Peptide exchange” value is recorded as ““+++” (>50 = +++)”.

As to “285 (FPSFLTNSL; listed as Homo sapiens) [compound 285]”, the “Wells positive [%]” value in the assay with CD8+ T cells is listed as ““++++” (>=70% = ++++)”. For the same substance, the “Peptide exchange” value with HLA-B*07 is ““++++” (>75% = ++++)”.

Consider “249 (VPSSRILQL; listed as Homo sapiens) [compound 249]”, for which the “Wells positive [%]” value in the assay with CD8+ T cells is ““+++” (50%-69% = +++)”. In addition, the “Peptide exchange” value with HLA-B*07 was ““++++” (>75% = ++++)”.

Regarding “242 (SPRWLPVSL; listed as Homo sapiens) [compound 242]”, in the assay with CD8+ T cells, the “Wells positive [%]” value is given as ““++++” (>=70% = ++++)”. Besides, the “Peptide exchange” value with HLA-B*07 is listed as ““++++” (>75% = ++++)”.

As to “256 (SPRVPSIEL; listed as Homo sapiens) [compound 256]”, the “Peptide exchange” value in the assay with HLA-B*07 is ““++++” (>75% = ++++)”.

Regarding “472 (NPRATDAQL; listed as Homo sapiens) [compound 472]”, in the assay with HLA-B*07, the “Peptide exchange” value was ““++++” (>75% = ++++)”.

Take “245 (RIREHVPQL; listed as Homo sapiens) [compound 245]”: in the assay with CD8+ T cells, the “Wells positive [%]” value is ““++” (20%-49% = ++)”. Besides, the “Peptide exchange” value with HLA-B*07 is recorded as ““+++” (>50 = +++)”.
